According to patent US20040076974A1, “Liver necrosis predictive genes” (priority 2002, published 2004):
Like-named read-outs stand apart in the source and are kept apart here.

System: Sprague Dawley rats
Experimental: Sprague Dawley rats Crl:CD from Charles River, Raleigh, N.C. were divided into treated rats that receive a specific concentration of the compound (see Table 1) and. control rats that only received the vehicle in which the compound is mixed (e.g., saline).
At specified timepoints (6 h, 24 h and 72 h) after administration (intraperitoneal route) of the compound, a set number of rats (usually 3 control and 3 treated) were euthanized and tissues collected. Each, rat was heavily sedated with an overdose of CO2 by inhalation and a maximum amount of blood drawn. Exsanguination of the rat by this drawing of blood kills the rat. The method of collecting the tissues is very important and ensures preserving the quality of the mRNA in the tissues. The body of the rat was then opened up and prosectors rapidly removed the tissues (including) and immediately placed them into liquid nitrogen. […] The organs/tissues were then packaged into well-labeled plastic freezer quality bags and stored at −80 degrees until needed for isolation of the mRNA from a portion of the organ/tissue sample.
Histopathology scores for each animal (assigned on a compound-dose basis as indicated in Table 1) were entered with gene expression data by using the GeneSpring™ ‘Drawn Gene’ function. Correlations between the histopathology scores and gene expression were conducted with the distance measures listed below:
Toxicity classifications were entered for training and test set as a parameter column. Toxicity, as defined by observation of necrosis in the at 72 hours after treatment, was entered as a “yes” or “no” for each animal in a compound-dose group. Additionally, a parameter column for random histopathology classification was designated. This was done by randomly assigning the same number of “yes” and “no” calls to the individual animals.

[1] = Sprague Dawley, rat, in vivo, ip, 50 mg/kg, 72 h
[2] = Sprague Dawley, rat, in vivo, ip, 25 mg/kg, 72 h
[3] = Sprague Dawley, rat, in vivo, ip, 100 mg/kg, 72 h

c1ccc2c(c1)cc1ccc3cccc4ccc2c1c34 [benzo[a]pyrene]
Liver Toxicity Necrosis Classification (compound-dose group at 72 h; dose 30): no | Liver Necrosis (rat, intraperitoneal, dose 30 mg/kg, 72 hours after treatment): No | Score (histopathology liver necrosis severity score) (rat, intraperitoneal, dose 30 mg/kg, 72 hours; 1 = not remarkable, 2 and higher increasing severity): 1

C[C@]12CC[C@@H]3c4ccc(O)cc4CC[C@H]3[C@@H]1CC[C@@H]2O [estradiol]
Score (histopathology liver necrosis severity score) (Sprague Dawley, rat, in vivo, ip, 0.1 mg/kg, 72 h): 1 | Score (histopathology liver necrosis severity score) (Sprague Dawley, rat, in vivo, ip, 0.4 mg/kg, 72 h): 1 | Liver Toxicity Necrosis Classification (rat, in vivo): no | Liver Necrosis (rat, in vivo, ip, 0.1 mg/kg): no | Liver Necrosis (rat, in vivo, ip, 0.4 mg/kg): no

O=c1[nH]cc(F)c(=O)[nH]1 [5-fluorouracil]
Score (histopathology liver necrosis severity score) (Sprague Dawley, rat, in vivo, ip, 13 mg/kg, 72 h): 1 | Score (histopathology liver necrosis severity score) [1]: 1 | Liver Toxicity Necrosis Classification (rat, in vivo): no | Liver Necrosis (rat, in vivo, ip, 13 mg/kg): no | Liver Necrosis (rat, in vivo, ip, 50 mg/kg): no

Nc1nc(O)c2ncn(COC(CO)CO)c2n1 [gancyclovir]
Score (histopathology liver necrosis severity score) [1]: 1 | Score (histopathology liver necrosis severity score) (Sprague Dawley, rat, in vivo, ip, 200 mg/kg, 72 h): 1 | Liver Toxicity Necrosis Classification (rat, in vivo): no | Liver Necrosis (rat, in vivo, ip, 50 mg/kg): no | Liver Necrosis (rat, in vivo, ip, 200 mg/kg): no

O=C(O)c1cc(-c2ccc(F)cc2F)ccc1O [diflunisal]
Score (histopathology liver necrosis severity score) [2]: 1 | Score (histopathology liver necrosis severity score) [3]: 1 | Liver Toxicity Necrosis Classification (rat, in vivo): no | Liver Necrosis (rat, in vivo, ip, 25 mg/kg): no | Liver Necrosis (rat, in vivo, ip, 100 mg/kg): no

carboxy methyl cellulose
Liver Necrosis (rat, in vivo, ip, 30 mg/kg): no | Score (histopathology liver necrosis severity score) (rat, in vivo, ip, 30 mg/kg): 1

[Cl][Cd][Cl] [cadmium chloride]
Liver Toxicity Necrosis Classification (72 h; compound-dose group; dose BRB 800, BUS 14, CAD 1, CAR 16): no | Liver Toxicity Necrosis Classification (72 h; compound-dose group; dose CAD 2): no | Liver Toxicity Necrosis Classification (compound-dose group at 72 h, dose 1; no = no necrosis observed): no | Liver Toxicity Necrosis Classification (compound-dose group at 72 h, dose 4; yes = necrosis observed): yes | Liver Toxicity Necrosis Classification (compound-dose group at 72 h; BUS 14, CAD 1, CAR 16 (dose codes, Table 1)): no | Liver Necrosis (rat, intraperitoneal, dose 1 mg/kg, 72 hours after treatment): no | Score (histopathology liver necrosis severity score) (rat, intraperitoneal, dose 1 mg/kg, 72 hours; 1 = not remarkable, 2 and higher increasing severity): 1 | Liver Necrosis (rat, intraperitoneal, dose 2 mg/kg, 72 hours after treatment): No | Score (histopathology liver necrosis severity score) (rat, intraperitoneal, dose 2 mg/kg, 72 hours; 1 = not remarkable, 2 and higher increasing severity): 1 | Liver Necrosis (rat, intraperitoneal, dose 4 mg/kg, 72 hours after treatment): Yes | Score (histopathology liver necrosis severity score) (rat, intraperitoneal, dose 4 mg/kg, 72 hours; 1 = not remarkable, 2 and higher increasing severity): 3

COc1ccc(C[C@H](N)C(=O)N[C@H]2[C@@H](O)[C@H](n3cnc4c(N(C)C)ncnc43)O[C@@H]2CO)cc1 [puromycin]
Score (histopathology liver necrosis severity score) (Sprague Dawley, rat, in vivo, ip, 38 mg/kg, 72 h): 1 | Score (histopathology liver necrosis severity score) (Sprague Dawley, rat, in vivo, ip, 150 mg/kg, 72 h): 1 | Liver Toxicity Necrosis Classification (rat, in vivo): no | Liver Necrosis (rat, in vivo, ip, 38 mg/kg): no | Liver Necrosis (rat, in vivo, ip, 150 mg/kg): no

ClC(Cl)Cl [chloroform]
Liver Toxicity Necrosis Classification (rat, in vivo): no | Liver Necrosis (rat, in vivo, ip): no | Score (histopathology liver necrosis severity score) (rat, in vivo, ip): 1

C=C[C@H]1C[N@@]2CC[C@H]1C[C@@H]2[C@@H](O)c1ccnc2ccc(OC)cc12 [quinidine]
Liver Necrosis (rat, intraperitoneal, dose 25 mg/kg, 72 hours after treatment): no | Score (histopathology liver necrosis severity score) (rat, intraperitoneal, dose 25 mg/kg, 72 hours; 1 = not remarkable, 2 and higher increasing severity): 1 | Liver Necrosis (rat, intraperitoneal, dose 100 mg/kg, 72 hours after treatment): no | Score (histopathology liver necrosis severity score) (rat, intraperitoneal, dose 100 mg/kg, 72 hours; 1 = not remarkable, 2 and higher increasing severity): 1

CCC(=O)O[C@H]1[C@H](O[C@@H]2[C@@H](C)[C@H](O[C@H]3C[C@@](C)(OC)[C@@H](O)[C@H](C)O3)[C@@H](C)C(=O)O[C@H](CC)[C@@](C)(O)[C@H](O)[C@@H](C)C(=O)[C@H](C)C[C@@]2(C)O)O[C@H](C)C[C@@H]1N(C)C [erythromycin estolate]
Liver Toxicity Necrosis Classification (72 h, dose 40): no | Liver Toxicity Necrosis Classification (compound-dose group at 72 h; dose 40): no | Liver Toxicity Necrosis Classification (compound-dose group at 72 h; dose 160): no | Liver Toxicity Necrosis Classification (dose 40, 72 h): no | Liver Toxicity Necrosis Classification (dose 160, 72 h): no | Liver Necrosis (rat, intraperitoneal, dose 40 mg/kg, 72 hours after treatment): no | Score (histopathology liver necrosis severity score) (rat, intraperitoneal, dose 40 mg/kg, 72 hours; 1 = not remarkable, 2 and higher increasing severity): 1 | Liver Necrosis (rat, intraperitoneal, dose 160 mg/kg, 72 hours after treatment): no | Score (histopathology liver necrosis severity score) (rat, intraperitoneal, dose 160 mg/kg, 72 hours; 1 = not remarkable, 2 and higher increasing severity): 1

N.N.[Cl][Pt][Cl] [cisplatin]
Liver Necrosis (rat, intraperitoneal, dose 10 mg/kg, 72 hours after treatment): no | Score (histopathology liver necrosis severity score) (rat, intraperitoneal, dose 10 mg/kg, 72 hours; 1 = not remarkable, 2 and higher increasing severity): 1

CCOC(=O)C(C)(C)Oc1ccc(Cl)cc1 [clofibrate]
Score (histopathology liver necrosis severity score) (Sprague Dawley, rat, in vivo, ip, 75 mg/kg, 72 h): 1 | Score (histopathology liver necrosis severity score) (Sprague Dawley, rat, in vivo, ip, 250 mg/kg, 72 h): 1 | Liver Toxicity Necrosis Classification (rat, in vivo): no | Liver Necrosis (rat, in vivo, ip, 75 mg/kg): no | Liver Necrosis (rat, in vivo, ip, 250 mg/kg): no

CN1CCN(C2=Nc3cc(Cl)ccc3Nc3ccccc32)CC1 [clozapine]
Score (histopathology liver necrosis severity score) (Sprague Dawley, rat, in vivo, ip, 45 mg/kg, 72 h): 1 | Score (histopathology liver necrosis severity score) (Sprague Dawley, rat, in vivo, ip, 180 mg/kg, 72 h): 1 | Liver Toxicity Necrosis Classification (rat, in vivo): no | Liver Necrosis (rat, in vivo, ip, 45 mg/kg): no | Liver Necrosis (rat, in vivo, ip, 180 mg/kg): no

aflatoxin B1
Liver Necrosis (rat, in vivo, ip, 1 mg/kg): Yes | Score (histopathology liver necrosis severity score) (rat, in vivo, ip, 1 mg/kg): 8

COc1cccc2c1C(=O)c1c(O)c3c(c(O)c1C2=O)C[C@@](O)(C(=O)CO)C[C@@H]3O[C@H]1C[C@H](N)[C@H](O)[C@H](C)O1 [doxorubicin]
Score (histopathology liver necrosis severity score) (Sprague Dawley, rat, in vivo, ip, 12 mg/kg, 72 h): 1 | Liver Toxicity Necrosis Classification (rat, in vivo): no | Liver Necrosis (rat, in vivo, ip, 12 mg/kg): no

Cn1c(=O)c2[nH]cnc2n(C)c1=O [theophylline]
Score (histopathology liver necrosis severity score) [2]: 1 | Score (histopathology liver necrosis severity score) [3]: 1 | Liver Toxicity Necrosis Classification (rat, in vivo): no | Liver Necrosis (rat, in vivo, ip, 25 mg/kg): no | Liver Necrosis (rat, in vivo, ip, 100 mg/kg): no

gentamicin
Liver Toxicity Necrosis Classification (at 72 h; dose 38): no | Liver Toxicity Necrosis Classification (at 72 h; dose 150): no | Liver Toxicity Necrosis Classification (compound-dose group at 72 h, dose 38): no | Liver Toxicity Necrosis Classification (compound-dose group at 72 h, dose 150): no | Liver Toxicity Necrosis Classification (compound-dose group at 72 h; dose 38): no | Liver Toxicity Necrosis Classification (compound-dose group at 72 h; dose 150): no | Liver Toxicity Necrosis Classification (compound-dosegroup at 72 h; dose 38): no | Liver Necrosis (rat, intraperitoneal, dose 38 mg/kg, 72 hours after treatment): no | Score (histopathology liver necrosis severity score) (rat, intraperitoneal, dose 38 mg/kg, 72 hours; 1 = not remarkable, 2 and higher increasing severity): 1 | Liver Necrosis (rat, intraperitoneal, dose 150 mg/kg, 72 hours after treatment): no | Score (histopathology liver necrosis severity score) (rat, intraperitoneal, dose 150 mg/kg, 72 hours; 1 = not remarkable, 2 and higher increasing severity): 1

CN(N=O)C(=O)N[C@H]1C(O)O[C@H](CO)[C@@H](O)[C@@H]1O (mixture of isomers) [streptozotocin]
Liver Toxicity Necrosis Classification (compound-dose group at 72 h, dose 20): no | Liver Toxicity Necrosis Classification (compound-dose group at 72 h, dose 75): no | Liver Toxicity Necrosis Classification (compound-dose group at 72 h; dose 20): no | Liver Toxicity Necrosis Classification (compound-dose group at 72 h; dose 75): no | Liver Toxicity Necrosis Classification (compound-dosegroup at 72 h, dose 20): no | Liver Toxicity Necrosis Classification (compound-dosegroup at 72 h, dose 75): no | Liver Toxicity Necrosis Classification (compound-dosegroup at 72 h; dose PEG 5000, PUR 38, QUIN 25, STRZ 20): no | Liver Necrosis (rat, intraperitoneal, dose 20 mg/kg, 72 hours after treatment): no | Score (histopathology liver necrosis severity score) (rat, intraperitoneal, dose 20 mg/kg, 72 hours; 1 = not remarkable, 2 and higher increasing severity): 1 | Liver Necrosis (rat, intraperitoneal, dose 75 mg/kg, 72 hours after treatment): no | Score (histopathology liver necrosis severity score) (rat, intraperitoneal, dose 75 mg/kg, 72 hours; 1 = not remarkable, 2 and higher increasing severity): 1

CS(=O)(=O)OCCCCOS(C)(=O)=O [busulfan]
Score (histopathology liver necrosis severity score) (Sprague Dawley, rat, in vivo, ip, 14 mg/kg, 72 h): 1 | Liver Toxicity Necrosis Classification (rat, in vivo): no | Liver Necrosis (rat, in vivo, ip, 14 mg/kg): no
